Laboratory results published in ChEMBL document CHEMBL4842358, “Design, synthesis and biological evaluation of sphingosine-1-phosphate receptor 2 antagonists as potent 5-FU-resistance reversal agents for the treatment of colorectal cancer” (Eur J Med Chem, 2021).
The source made the active and inactive calls. The calls are words filed in the database; no cut-off is given here.

Tests used:
[1] = molecular target: T1, Sphingosine 1-phosphate receptor 2 (Homo sapiens, UniProt O95136); assay: Binding affinity to S1PR2 (unknown origin) measured by surface plasmon resonance assay; details: filed as antagonist
[2] = Reversal of 5-FU resistance against human SW620/5-FU cells assessed as inhibition of cell proliferation measured after 72 hrs in presence of 5-FU by MTT assay; format: functional, cell-based
NCM460 = assay: Cytotoxicity against human NCM460 cells assessed as cell viability measured after 72 hrs in presence of 5-FU by MTT assay; format: cell-based; details: NCM460, 72 h
[3] = molecular target: T1, Sphingosine 1-phosphate receptor 2; assay: Binding affinity to S1PR2 (unknown origin) assessed as dissociation constant measured for 60 secs by surface plasmon resonance assay
[4] = molecular target: T1, Sphingosine 1-phosphate receptor 2; assay: Binding affinity to S1PR2 (unknown origin) assessed as association constant measured for 60 secs by surface plasmon resonance assay; details: filed as antagonist, time 60.0 sec
[5] = molecular target: T1, Sphingosine 1-phosphate receptor 2; assay: Antagonist activity at S1PR2 in human SW620/5-FU cells assessed as downregulation of DPD expression by western blot analysis; format: functional, cell-based; details: filed as antagonist
HCT-116 = assay: Reversal of 5-FU resistance against human HCT-116 cells overexpressing DPD assessed as inhibition of cell proliferation measured after 72 hrs in presence of 5-FU by MTT assay; format: functional, cell-based; details: HCT-116, 72 h

T1 sequence (O95136 whole entry): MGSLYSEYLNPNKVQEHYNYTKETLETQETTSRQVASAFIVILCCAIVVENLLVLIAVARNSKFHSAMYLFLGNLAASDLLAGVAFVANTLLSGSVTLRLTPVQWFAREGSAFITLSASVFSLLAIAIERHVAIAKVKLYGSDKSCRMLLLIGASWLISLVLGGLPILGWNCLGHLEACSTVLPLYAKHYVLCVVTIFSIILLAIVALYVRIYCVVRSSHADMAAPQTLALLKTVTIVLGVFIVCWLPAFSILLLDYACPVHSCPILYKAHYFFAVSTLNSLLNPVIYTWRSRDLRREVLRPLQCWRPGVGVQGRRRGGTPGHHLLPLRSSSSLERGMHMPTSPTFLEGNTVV

SMILES	K [1]	EC50 [2]	EC50 (NCM460)	Dissociation rate constant (koff) [3]	Ka [4]	inhibition [5]	EC50 (HCT-116)
O=C(Nc1cc(Cl)nc(Cl)c1)Nc1cc(Cl)nc(OC2CCCC2)c1	3.99 10^-7M	6.15 µM	21.4 µM	1.79 10^-1/s	4.49 10^5/M/s	Active	5.12 µM
O=C(NNc1nc(Nc2ccccc2)nc(N2CCCC2)n1)Nc1cc(Cl)nc(Cl)c1	1.86 10^-7M	31.9 µM	65.2 µM	1.33 10^-1/s	7.15 10^5/M/s	–	23.2 µM
O=C(Nc1cc(Cl)nc(Cl)c1)Nc1cc2ccccn2n1	1.46 10^-8M	2.49 µM	10.2 µM	1.16 10^-1/s	7.93 10^6/M/s	Active	5.13 µM
O=C(Nc1cc(Cl)cc(Cl)c1)Nc1cc(Cl)nc(Cl)c1	3.56 10^-6M	12.2 µM	55.4 µM	1.16 10^-1/s	3.26 10^4/M/s	Active	11.4 µM
CN1CCN(C(=O)Nc2cc(Cl)nc(Cl)c2)CC1	5.35 10^-7M	548 µM	521 µM	1.06 10^-1/s	1.98 10^5/M/s	–	142 µM
CCOc1cc(NC(=O)Nc2cc(Cl)nc(Cl)c2)cc(Cl)n1	5.2 10^-7M	8.15 µM	25.3 µM	1.02 10^-1/s	1.96 10^5/M/s	Active	6.13 µM
O=C(Nc1ccnc(Cl)c1)Nc1cc(Cl)nc(Cl)c1	5.5 10^-6M	31.2 µM	55.3 µM	2.01 10^-1/s	3.65 10^4/M/s	–	16.1 µM
O=C(NNc1nc(N2CCOCC2)c2ccn(C3CC3)c2n1)Nc1cc(Cl)nc(Cl)c1	2.17 10^-6M	436 µM	549 µM	1.33 10^-1/s	6.12 10^4/M/s	–	449 µM
CN(C)c1nc(NNC(=O)Nc2cc(Cl)nc(Cl)c2)nc2c1ccn2C	1.85 10^-6M	48.2 µM	58.5 µM	1.02 10^-1/s	7.55 10^4/M/s	–	41.5 µM
CNc1cc(C)nc(NNC(=O)Nc2cc(Cl)nc(Cl)c2)n1	4.24 10^-6M	122 µM	65.3 µM	2.36 10^-1/s	5.56 10^4/M/s	–	23.4 µM
O=c1[nH]cc(F)c(=O)[nH]1 [FLUOROURACIL]	–	> 1000 µM	43.3 µM	–	–	–	> 1000 µM
O=C(Nc1cc(Cl)nc(Cl)c1)Nc1cc2ccc(-c3ccccc3)cn2n1	4.38 10^-8M	9.25 µM	8.05 µM	2.01 10^-1/s	4.59 10^6/M/s	Active	5.13 µM
Cc1cc(NC(=O)Nc2cc(Cl)nc(Cl)c2)n(C)n1	3.3 10^-6M	67.2 µM	134 µM	1.77 10^-1/s	5.36 10^4/M/s	–	94.2 µM
CC(C)Oc1cc(NC(=O)Nc2cc(Cl)nc(Cl)c2)cc(Cl)n1	1.3 10^-7M	5.17 µM	21.1 µM	1.19 10^-1/s	9.14 10^5/M/s	Active	5.23 µM
Cc1cc(NC(=O)Nc2cc(Cl)nc(Cl)c2)cc(C)n1	2.57 10^-8M	234 µM	576 µM	1.46 10^-1/s	5.69 10^6/M/s	–	86.2 µM
O=C(Nc1cc(Cl)nc(Cl)c1)Nc1cc2ccc(Br)cn2n1	2.02 10^-8M	11.7 µM	8.94 µM	0.168 s⁻¹	8.31 10^7/M/s	Active	5.26 µM
COc1c(Cl)cc(NC(=O)Nc2cc(Cl)nc(Cl)c2)cc1Cl	5 10^-8M	8.25 µM	27.3 µM	3.12 10^-1/s	6.24 10^6/M/s	Active	41.5 µM
COc1ccc(-c2ccc3cc(NC(=O)Nc4cc(Cl)nc(Cl)c4)nn3c2)cc1	1.22 10^-8M	9.62 µM	8.35 µM	1.12 10^-1/s	9.12 10^6/M/s	Active	5.35 µM
COc1cc(NC(=O)Nc2cc(Cl)nc(Cl)c2)cc(Cl)n1	6.82 10^-7M	14.2 µM	33.2 µM	2.19 10^-1/s	3.21 10^5/M/s	Active	11.2 µM
Cn1ccc2c(-c3ccccc3)nc(NNC(=O)Nc3cc(Cl)nc(Cl)c3)nc21	2.61 10^-6M	528 µM	683 µM	1.36 10^-1/s	5.21 10^4/M/s	–	660 µM
